Assays:
SH-SY5Y cells [1] = assay: ROS production (DCF-DA) in SH-SY5Y cells; assay type: cell-based, human; conditions: 0.01-0.1 mg/mL TFV
Procedure: (§1) As a first approach to predict the inflammatory response on neuronal cells, the ROS production of HMC-3 and SH-SY5Y cells was evaluated. HMC-3 (FIG. 12A) and SH-SY5Y cells (FIG. 12B) were treated with the different drug-to-lipid ratios of 1:20 and 1:4 at varying TFV drug concentrations (0.01-0.1 mg/mL). A negative control antioxidant (catalase) and positive control (H2O2) were used on non-treated cells. A simultaneous setup was also performed for empty NDs at varying lipid concentrations.
(§2) Reactive oxygen species of ND: Reactive oxygen species (ROS) productions in HMC-3 and SH-SY5Y cells following nanodisc treatment were detected using dichlorofluorescein diacetate assay (DCF-DA; Molecular Probes, Eugene, OR). Cells were cultured in 96-well black bottom plates at 100,000 cells per well and incubated at 37° C. in a humidified, 5% CO2 atmosphere for 24 hours to allow for 70% confluence. The following day, cell media was taken out from each well and replenished with 100 μl of PBS+1% FBS. […] A study of FD-TFV was also measured in similar conditions simultaneously. […] Following 2 hours, the first reading of cell ROS production was read in a BioTek Synergy HTH.T. multi-mode microplate reader (BioTek, Winooski, VT, USA) and then taken every hour for the following 18 hours (excitation 485 nm and emission 528 nm; BioTek). […]

[2] = mouse, in vivo, iv, 20 mg/kg
Procedure: PK data analysis was performed using the plasma concentrations of TFV in the mice (FIG. 17). Plasma samples were collected for up to 48 hrs and 72 hours.
An Envigo Teklad Certified Global 18% protein rodent diet, #2018C, and water were provided to the mice ad libitum. Mice were administered a single dose intravenous (iv) dose administration. The average weight of Phase A and Phase B mice were 17.3-18.6 g and 17.2-23.4 g, respectively. All procedures were per the current Association for Assessment and Accreditation of Laboratory Animal Care (AAALAC) recommendations. In vivo studies were carried out in collaboration with NIH-DAIDS Preclinical Contract Services.
During the PK study, 24 males and 24 females used for this phase were divided into two groups (Table 5). […]
TFV was detected with the mass spectrometer in positive MRM (multiple reaction monitoring) mode by following the precursor to fragment ion transitions 288.1 to 176.2 for TFV. A Phenomenex Synergi Polar-RP column (4 microns, 100×2 mm) was used for chromatography with the following conditions: Buffer A: 2% acetic acid in water, Buffer B: 0.1% acetic acid in acetonitrile, 0-2.0 min 2% B, 2.0-2.01 min gradient to 98% B, 2.01-3.5 min gradient to 98% B, and then 3.51-5 min gradient to 2% B. The concentration of drug in each timepoint sample was quantified using Analyst 1.7 software (AB Sciex).

[3] = In vitro sustained drug release assay of ND (equilibrium dialysis in PBS, LC-MS/MS); assay type: physicochemical
Procedure: In vitro sustained drug release assay: The nanodisc formulation's extended drug release profile was determined in phosphate buffer saline (PBS) using an equilibrium dialysis system. The released TFV from the dialysis bag into the outside environment was sampled at different time points up to 14 days and was measured by LC-MS/MS. The dialysis bag used in these experiments was selected for its pore size of 6-8 kDa MWCO. […] Simultaneously, a separate set up with the same concentration and volume of FD-TFV was used as a control. Results were expressed as the percentage of total TFV released into the system compared to the initial concentration. It was observed that 63% of FD-TFV was release within 4 hours. […] (FIG. 14).
In vitro sustained drug release assay of ND: The drug release kinetics of the nanodisc-based drug delivery was determined in PBS using equilibrium dialysis. […] TFV was monitored by LC-MS/MS using an AB Sciex (Framingham, MA) 6500+QTRAP® mass spectrometer coupled to a Shimadzu (Columbia, MD) NexeraX2 LC. […] LC-MS/MS then evaluated the supernatant. […] The limit of quantitation (LOQ) was defined as the lowest concentration at which back-calculation yielded a concentration within 20% of theoretical and above the LOD.

SH-SY5Y cells [4] = assay: Cell viability (MTS) assay on SH-SY5Y cells; assay type: cell-based, human; conditions: 72 hours, 0.01-0.1 mg/mL
Procedure: (§3) To characterize the nanodisc formulation in the biological system in in vitro conditions, it was necessary to screen the formulation for cytotoxicity and ensure that it would not induce significant cytotoxicity to microglial (HMC-3) and neuronal (SH-SY5Y) cells. […] A cell viability (MTS) study was performed for both 1:20 and 1:4 NDs as per the manufacturer's instruction (G3582, Promega, Madison, WI, USA). Nanodiscs were introduced to these cells separately at varying TFV drug concentrations of 0.01-0.1 mg/mL and incubated for 72 hours.
(§4) Microglia and Neuroblastoma Cell Culture: Human embryonic microglial clone 3 cells (HMC-3) and human neuroblastoma cells (SH-SY5Y) were purchased from the American Type Culture Collection (ATCC) Manassas, VA, USA). The transformed cell lines retain the properties of primary cells. They represent homogeneous cell populations that can be grown indefinitely and might represent a convenient system for their functions' biochemical analysis. Cells were cultured in Eagle's Minimum Essential Medium (EMEM) (ATCC®, Manassas, VA, USA) supplemented with a fetal bovine serum to a final concentration of 10% at 37° C. in a humidified, 5% CO2 atmosphere as recommended by the supplier.
(§5) Cells were cultured in 96-well black bottom plates at 50,000 cells per well and incubated at 37° C. in a humidified, 5% CO2 atmosphere for 24 hours to allow for 70% confluence. […]

HMC-3 cells [5] = assay: Cell viability (MTS) assay on HMC-3 cells; assay type: cell-based, human; conditions: HMC-3, 72 hours, 0.01-0.1 mg/mL
Procedure: as §3, §4, §5

HMC-3 cells [6] = assay: ROS production (DCF-DA) in HMC-3 cells; assay type: cell-based, human; conditions: 0.01-0.1 mg/mL TFV
Procedure: as §1, §2

[7] = In vitro sustained drug release assay of liposomal structure (equilibrium dialysis in PBS, NanoDrop); assay type: physicochemical
Procedure: In order to study the liposome formulation's extended drug release kinetics, a drug release study was done in PBS using an equilibrium dialysis system. […] Liposome 1 has a lipid charge density of 5%. The released TFV from the dialysis bag into the outside environment was sampled at different time points up to 14 days and was measured by a NanoDrop Microvolume Spectrophotometer. Simultaneously, a separate setup with the same concentration and volume of FD-TFV was used as a control. Results were expressed as the cumulative total of TFV released into the system compared to the initial concentration (FIG. 18). […] This downward trend may be caused by byproducts from the FD-TFV in the external environment.

HMC-3 cells [8] = assay: In vitro cellular uptake study in microglial cells; assay type: in vitro ADME, human; conditions: HMC-3, 0.0625 mg/mL, monitored over 24 hours
Procedure: Cell uptake and characterization of extended-release from nanodisc: To evaluate the intracellular uptake of TFV in microglial cells an in vitro cellular uptake study was performed. The cellular uptake of the two formulations (1:20 ND and 1:4 ND) and FD-TFV as a control were evaluated simultaneously and the uptake and release of TFV was monitored over 24 hours. […] This small window of cellular uptake may indicate that there is a certain capacity that microglia cells can uptake TFV. […] However, the short windows of drug uptake by the microglial cells could indicate that the size and surface charge of the ND could be a contributing factor.
Cell uptake and characterization of extended-release from ND: Microglial uptake, retention, and release of 1:20 ND, 1:4 ND, and FD-TFV were determined. HMC-3 cells were cultured in 24-well at 50,000 cells per well and incubated at 37° C. in a humidified, 5% CO2 atmosphere for 24 hours to allow for 70% confluence. After 24 hours of cell growth, samples were assigned into different treatment groups of 1:20 ND, 1:4 ND, and FD-TFV and treated at 0.0625 mg/mL concentration. Following drug treatment, samples were incubated at 37° C., and cell uptake was determined every hour over 8 hours and at a 24-hour timepoint. For each sample, media was collected into microcentrifuge tubes and stored at −20° C. for later analysis. […]

ROS production compared to the control (SH-SY5Y cells [1]): did not induce a significant increase
AUCinf values (comparison with ND formulation) [2]: higher
plasma exposure higher than for ND (mean C0, AUClast and AUCinf) [2]: 2 fold
TFV release profile (comparison) ([3]; PBS dialysis, up to 14 days): significantly faster TFV release
drug release within 4 hours ([3]; PBS, dialysis 6-8 kDa MWCO, 37° C., LC-MS/MS): 63%
ROS production compared to the control (HMC-3 cells [6]): did not induce a significant increase
drug release of TFV within 4 hours ([7]; NanoDrop spectrophotometer): 100%
time of maximum uptake (HMC-3 cells [8]): 2 h
Compound: C[C@H](Cn1cnc2c(N)ncnc21)OCP(=O)(O)O [FD-TFV, Tenofovir]
cytotoxicity compared to the control (SH-SY5Y cells [4]): not considered to be significantly toxic
cytotoxicity compared to the control (HMC-3 cells [5]): not considered to be significantly toxic
drug release (comparison with liposomes) ([7]; up to 14 days): significantly faster drug release than the liposomes

Reference: patent publication US20230302154A1, “NANODRUGS FOR TARGETED DRUG DELIVERY AND USE THEREOF” (priority 2020, published 2023)
